Patent EP0791603A2, “Pure somatostatin antagonist and methods of use thereof” (American Cyanamid Company, priority 1996, dated 1997)
Positions of bridges follow the written chain, without caps; N, C: chain ends. Non-standard residues stand in square brackets, D forms with d. Residues, ends and D or L forms follow the SMILES beside them. NMePhe(4-NO2) = CN[C@@H](Cc1ccc([N+](=O)[O-])cc1)C(=O)O; Phe(4-NO2) = N[C@@H](Cc1ccc([N+](=O)[O-])cc1)C(=O)O; 2Nal = N[C@@H](Cc1ccc2ccccc2c1)C(=O)O; d2Nal = N[C@H](Cc1ccc2ccccc2c1)C(=O)O; Abu = CC[C@H](N)C(=O)O

Target: T1, rat somatostatin receptor subtype 2 (SSTR2) (Rattus norvegicus, UniProt P30680)
T1 construct: expressed in transfected cells; host or cells: Saccharomyces cerevisiae LY364
T1 sequence (P30680 whole entry): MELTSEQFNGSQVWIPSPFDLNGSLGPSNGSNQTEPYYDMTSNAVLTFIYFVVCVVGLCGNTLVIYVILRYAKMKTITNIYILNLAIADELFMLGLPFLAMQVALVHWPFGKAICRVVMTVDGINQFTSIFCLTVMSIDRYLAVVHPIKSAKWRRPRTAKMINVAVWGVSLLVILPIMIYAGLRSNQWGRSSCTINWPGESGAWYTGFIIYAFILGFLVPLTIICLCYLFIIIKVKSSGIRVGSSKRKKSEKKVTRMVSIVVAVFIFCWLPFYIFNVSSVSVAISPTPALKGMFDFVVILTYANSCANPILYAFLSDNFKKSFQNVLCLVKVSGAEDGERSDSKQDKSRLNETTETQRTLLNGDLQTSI
Experiment: Yeast assay, somatostatin agonist activity (growth zone of modified yeast cells on histidine-free agar)
Assay type: cell-based
Conditions: rating on a scale of 1-5 from zone of growing cells; S. Cerevisiae LY364
Experimental: In this evaluation, yeast cells which have been specifically modified to functionally express rat somatostatin receptor subtype 2 (SSTR2) on their cell surfaces are used. S. Cerevisiae LY364 cells are plated in a standard synthetic agar medium which lacks histidine. In the absence of a somatostatin receptor agonist, the auxotrophic (his3) cells are unable to grow. In the presence of somatostatin, or a somatostatin agonist, the expression of an enzyme (His3p: imidazole-glycerol phosphate dehydratase) which is essential for histidine biosynthesis is induced. The cells become competent to produce histidine, resulting in a zone of growing cells around the applied test compound. The zone is measured and the test compound is given an agonist rating on a scale of 1-5 wherein 1 is minimum agonist activity and 5 is maximum agonist activity.
SCD-ura-trp: • 1) To 500 mL water add: • 1.7 g YNB without amino acids and (NH4)2SO4 • 5.0 g (NH4)2SO4 • 0.7 g CSM-ura-trp • 2) To additional 500 mL water add: 20 g Dextrose • 3) Autoclave separately. Mix.
SCL-ura-trp: • 1) To 500 mL water add: • 1.7 g YNB without amino acids and (NH4)2SO4 • 5.0 g (NH4)2SO4 • 0.7 g CSM-ura-trp • 2) To additional 500 mL water add: 30 mL Lactic Acid • 3) Autoclave separately. Mix.
SCG-ura-trp: • 1) To 500 mL water add: • 1.7 g YNB without amino acids and (NH4)2SO4 • 5.0 g (NH4)2SO4 • 0.7 g CSM-ura-trp • 2) To additional 500 mL water add: 30 g D-Galactose • 3) Autoclave separately. Mix.
SCG-ura-trp-his agar medium, pH 6.8: • 1) To 500 mL water add: • 1.7 g YNB without amino acids and (NH4)2SO4 • 5.0 g (NH4)2SO4 • 0.7 g CSM-ura-trp-his • Stirring Bar • 2) Adjust pH to 6.8-6.9 by dropwise addition of conc. NH4OH • 3) To additional 500 mL water add: 30 g D-Galactose, 20 g Agar • 4) Autoclave separately. • 5) Stir to mix thoroughly. • 6) Equilibrate temperature to 55°C. YNB without amino acids and (NH4)2SO4, CSM-ura-trp, and CSM-ura-trp-his are manufactured by Bio101. Ammonium sulfate ((NH4)2SO4), Dextrose (D-glucose), D-Galactose, and Lactic Acid are manufactured by Sigma.
• 1) Inoculate 2 mL SCD-ura-trp liquid medium in Falcon 2051 tube with a single colony taken from a plate containing LY364 (MATa ura3-52 leu2 his3 trp1 lys2 ade2 far1:: LYS2 fus1:: FUS1-HIS3 gpal::hisG sst2::ADE2 bearing the SSTR2 expression plasmid, pJH2, and the G protein expression plasmid, pLP82)cells. • 2) Incubate overnight in a roller drum at 30°C.
Day 2. • 1) Harvest the cells by centrifugation (3 krpm, 5 min, room temp). • 2) Re-suspend with 5 mL of sterile water. • 3) Harvest again by centrifugation. • 4) Re-suspend in 5 mL SCL-ura-trp liquid medium. • 5) Incubate for 6 hours in a roller drum at 30°C. • 6) Harvest the cells again by centrifugation. • 7) Re-suspend in 5 mL SCG-ura-trp liquid medium. • 8) Incubate overnight in a roller drum at 30°C.
Day 3. • 1) Autoclave SCG-ura-trp-his pH 6.8 agar medium. • 2) Cool to 55°C in water bath. • 3) Add 1 mL of LY364 culture to 1 liter of agar medium. • 4) Stir vigorously for 1 min. • 5) Pour 150 mL each into five 500 cm^2 plates. • 6) Allow to cool on level surface. • 7) Apply test compound.
On day 3, add 5µL 1 mg/mL S-14 to each plate. Day 5. Begin checking plates for growth around applied compounds. Day 7. Growth in response to somatostatin should be readily observable. Rate extent of growth or inhibition of growth according to rating scale described hereinabove.

SMILES	Yeast Assay Agonist
C[C@@H](O)[C@@H]1NC(=O)[C@H](CCCCN)NC(=O)[C@@H](Cc2c[nH]c3ccccc23)NC(=O)[C@H](Cc2ccc(O)cc2)NC(=O)[C@H](NC(=O)[C@@H](N)Cc2ccc([N+](=O)[O-])cc2)CSSC[C@@H](C(=O)N[C@H](Cc2ccc(O)cc2)C(N)=O)NC1=O	-
C[C@@H](O)[C@@H]1NC(=O)[C@H](CCCCN)NC(=O)[C@@H](Cc2c[nH]c3ccccc23)NC(=O)[C@H](Cc2ccc(O)cc2)NC(=O)[C@H](NC(=O)[C@@H](N)Cc2ccc([N+](=O)[O-])cc2)CSSC[C@@H](C(=O)N[C@@H](Cc2ccc(O)cc2)C(N)=O)NC1=O	-
CC(=O)N[C@@H](Cc1ccc2ccccc2c1)C(=O)N[C@@H]1CSSC[C@@H](C(=O)N[C@@H](Cc2ccc(O)cc2)C(N)=O)NC(=O)[C@H]([C@@H](C)O)NC(=O)[C@H](CCCCN)NC(=O)[C@@H](Cc2c[nH]c3ccccc23)NC(=O)[C@H](Cc2ccc(O)cc2)NC1=O (Ac-[2Nal][dC]Y[dW]KTCY-NH2; disulfide 2-7 (inferred))	-
CC(C)[C@@H]1NC(=O)[C@H](CCCCN)NC(=O)[C@@H](Cc2c[nH]c3ccccc23)NC(=O)[C@H](Cc2ccc(O)cc2)NC(=O)[C@H](NC(=O)[C@@H](N)Cc2ccc3ccccc3c2)CSSC[C@@H](C(=O)N[C@@H](Cc2ccc(O)cc2)C(N)=O)NC1=O (H-[2Nal][dC]Y[dW]KVCY-NH2; disulfide 2-7; N-terminus assumed)	-
CC(C)[C@@H]1NC(=O)[C@H](CCCCN)NC(=O)[C@@H](Cc2c[nH]c3ccccc23)NC(=O)[C@H](Cc2ccc(O)cc2)NC(=O)[C@H](NC(=O)[C@@H](N)Cc2ccc([N+](=O)[O-])cc2)CSSC[C@@H](C(=O)N[C@@H](Cc2ccc3ccccc3c2)C(N)=O)NC1=O (H-[Phe(4-NO2)][dC]Y[dW]KVC[2Nal]-NH2; disulfide 2-7 (inferred))	-
CC[C@@H]1NC(=O)[C@H](CCCCN)NC(=O)[C@@H](Cc2c[nH]c3ccccc23)NC(=O)[C@H](Cc2ccc(O)cc2)NC(=O)[C@H](NC(=O)[C@@H](N)Cc2ccc([N+](=O)[O-])cc2)CSSC[C@@H](C(=O)N[C@@H](Cc2ccc(O)cc2)C(N)=O)NC1=O (H-[Phe(4-NO2)][dC]Y[dW]K[Abu]CY-NH2; disulfide 2-7 (inferred))	-
CC(C)[C@@H]1NC(=O)[C@H](CCCCN)NC(=O)[C@@H](Cc2c[nH]c3ccccc23)NC(=O)[C@H](Cc2ccc(O)cc2)NC(=O)[C@H](NC(=O)[C@H](N)Cc2ccc3ccccc3c2)CSSC[C@@H](C(=O)N[C@@H](Cc2ccc(O)cc2)C(N)=O)NC1=O (H-[d2Nal][dC]Y[dW]KVCY-NH2; disulfide 2-7)	-

The next lines start with the values.

Yeast Assay Agonist	SMILES
-	CC(=O)N[C@@H](Cc1ccc([N+](=O)[O-])cc1)C(=O)N[C@@H]1CSSC[C@@H](C(=O)N[C@H](Cc2ccc(O)cc2)C(N)=O)NC(=O)[C@H]([C@@H](C)O)NC(=O)[C@H](CCCCN)NC(=O)[C@@H](Cc2c[nH]c3ccccc23)NC(=O)[C@H](Cc2ccc(O)cc2)NC1=O
-	CN[C@@H](Cc1ccc([N+](=O)[O-])cc1)C(=O)N[C@@H]1CSSC[C@@H](C(=O)N[C@@H](Cc2ccc(O)cc2)C(N)=O)NC(=O)[C@H](C(C)C)NC(=O)[C@H](CCCCN)NC(=O)[C@@H](Cc2c[nH]c3ccccc23)NC(=O)[C@H](Cc2ccc(O)cc2)NC1=O (H-[NMePhe(4-NO2)][dC]Y[dW]KVCY-NH2; disulfide 2-7 (inferred))
-	CC(C)[C@@H]1NC(=O)[C@H](CCCCN)NC(=O)[C@@H](Cc2c[nH]c3ccccc23)NC(=O)[C@H](Cc2ccc(O)cc2)NC(=O)[C@H](NC(=O)[C@@H](N)Cc2ccc([N+](=O)[O-])cc2)CSSC[C@@H](C(=O)N[C@@H](Cc2ccc(O)cc2)C(N)=O)NC1=O (H-[Phe(4-NO2)][dC]Y[dW]KVCY-NH2; disulfide 2-7 (inferred))
